Reference: EPA's ToxRefDB 2

Key:
rat [1] = conditions: Multigenerational reproductive toxicity study, sprague dawley, Oral, Gavage/Intubation, dose end: 1 generation
rat [2] = conditions: Prenatal developmental toxicity study, sprague dawley, Oral, Gavage/Intubation, dose end: 20 GD
rat [3] = conditions: Subchronic oral toxicity in rodents, sprague dawley, Gavage/Intubation, dose end: 90 day, group: systemic
rat [4] = conditions: Subchronic oral toxicity in rodents, other, Feed, dose end: 90 day, group: systemic
mouse [5] = conditions: Subchronic oral toxicity in rodents, b6c3f1, Feed, dose end: 15 week
rabbit = conditions: Prenatal developmental toxicity study, new zealand white, Oral, Gavage/Intubation, dose end: 19 GD
mouse [6] = conditions: Combined chronic toxicity/carcinogenicity, b6c3f1, Oral, Feed, dose end: 104 week, group: systemic
rat [7] = conditions: Combined chronic toxicity/carcinogenicity, sprague dawley, Oral, Feed, dose end: 104 week, group: systemic
rat [8] = conditions: Prenatal developmental toxicity study, sprague dawley, Oral, Gavage/Intubation, dose end: 15 GD
dog [9] = conditions: Subchronic oral toxicity in nonrodent, beagle, Gavage/Intubation, dose end: 13 week, group: systemic, systemic / hematology / mean corpuscular hemoglobin (mch) / mean corpuscular hemoglobin (mch) + systemic / hematology / mean corpuscular …
rat [10] = conditions: Multigenerational reproductive toxicity study, sprague dawley, Oral, Feed, dose end: 2 generation
dog [11] = conditions: Chronic toxicity; beagle; Oral; Gavage/Intubation; dose end: 52 week; group: systemic; systemic / clinical chemistry / albumin / albumin + systemic / clinical chemistry / alkaline phosphatase (alp/alk) / alkaline phosphatase (…
rat [12] = conditions: Subchronic oral toxicity in rodents, sprague dawley, Gavage/Intubation, dose end: 90 day, group: systemic; remark: listed apart in the source
rat [13] = conditions: Multigenerational reproductive toxicity study, sprague dawley, Oral, Gavage/Intubation, dose end: 2 generation
[14] = group: offspring, systemic / in life observation / body weight / offspring (pup) weight
[15] = group: parental, systemic / in life observation / body weight / body weight gain + systemic / in life observation / clinical signs / fur (altered appearance…
[16] = group: developmental, systemic / in life observation / body weight / fetal weight
[17] = group: maternal, systemic / in life observation / body weight / body weight + systemic / in life observation / body weight / body weight gain + systemic / in…
[18] = systemic / clinical chemistry / peroxisomal beta-oxidation analysis / peroxisomal beta-oxidation analysis + systemic / organ weight / liver…
[19] = systemic / hematology / neutrophils / neutrophils
[20] = systemic / in life observation / body weight / body weight gain
[21] = systemic / in life observation / body weight / body weight gain + systemic / clinical chemistry / albumin / albumin + systemic / clinical …
[22] = group: maternal, reproductive / reproductive performance / fertility / fertility
[23] = group: systemic, systemic / clinical chemistry / alkaline phosphatase (alp/alk) / alkaline phosphatase (alp/alk) + systemic / hematology / hematocrit (hct…
[24] = group: systemic, systemic / in life observation / food consumption / food consumption
[25] = group: developmental, systemic / in life observation / body weight / fetal weight + developmental / developmental malformation / bone / misshapen + developmental…
[26] = group: maternal, reproductive / reproductive performance / postimplantation loss / postimplantation loss + reproductive / reproductive performance / …
[27] = systemic / clinical chemistry / albumin / albumin + systemic / clinical chemistry / alkaline phosphatase (alp/alk) / alkaline phosphatase (…
[28] = systemic / organ weight / kidney / relative to body weight + systemic / organ weight / kidney / absolute
[29] = group: developmental, developmental / developmental malformation / bone / absent
[30] = group: maternal, systemic / in life observation / body weight / body weight gain
[31] = group: offspring, systemic / in life observation / body weight / offspring (pup) weight gain + systemic / in life observation / body weight / offspring (pup) …
[32] = group: parental, systemic / in life observation / body weight / body weight + systemic / in life observation / body weight / body weight gain
[33] = group: reproductive, reproductive / offspring survival early / litter size / litter size
[34] = group: reproductive, reproductive / offspring survival early / litter size / litter size + reproductive / reproductive performance / fertility / fertility
[35] = systemic / clinical chemistry / albumin / albumin + systemic / clinical chemistry / protein / protein + systemic / pathology microscopic / …
[36] = systemic / organ weight / spleen / absolute + systemic / organ weight / spleen / relative to body weight + systemic / organ weight / spleen…
[37] = group: offspring, systemic / organ weight / spleen / absolute
[38] = group: offspring, systemic / organ weight / spleen / absolute + systemic / pathology microscopic / kidney / edema + systemic / pathology microscopic / kidney…
[39] = group: parental, systemic / in life observation / body weight / body weight + systemic / in life observation / body weight / body weight gain + systemic / in…

O=C([O-])C(F)(F)C(F)(F)C(F)(F)C(F)(F)C(F)(F)F.[Na+] [Sodium perfluorohexanoate] was tested, and the LEL (rat [1]; [14]) was 500 mg/kg/day, the LOAEL (rat [1]; [14]) was over 500 mg/kg/day and the NEL (rat [1]; [14]) was 100 mg/kg/day. The NOAEL (rat [1]; [14]) was at least 500 mg/kg/day, the LEL (rat [1]; group: parental, systemic / in life observation / body weight / body weight gain) was 100 mg/kg/day and the LOAEL (rat [1]; [15]) was over 500 mg/kg/day. The NEL (rat [1]; [15]) was 20 mg/kg/day, the NOAEL (rat [1]; [15]) was at least 500 mg/kg/day and the LEL (rat [2]; [16]) was 500 mg/kg/day. For the same molecule, the LOAEL (rat [2]; [16]) was over 500 mg/kg/day, the NEL (rat [2]; [16]) was 100 mg/kg/day and the NOAEL (rat [2]; [16]) was at least 500 mg/kg/day. The LEL (rat [2]; [17]) was 500 mg/kg/day, the LOAEL (rat [2]; [17]) was over 500 mg/kg/day and the NEL (rat [2]; [17]) was 100 mg/kg/day. The NOAEL (rat [2]; [17]) was at least 500 mg/kg/day, the LOAEL (rat [3]; [18]) was over 500 mg/kg/day and the NOAEL (rat [3]; [18]) was at least 500 mg/kg/day. It also gave an LEL (rat [3]; [19]) of 20 mg/kg/day and an NEL (rat [3]; [19]) of under 20 mg/kg/day.

Work on CON(C)C(=O)Nc1ccc(Oc2ccc3c(c2)OC(C)(OC)CC3(C)C)cc1 (stereo not drawn) [Metobenzuron] yielded an LEL (rat [4]; [20]) of 7.29 mg/kg/day, an LOAEL (rat [4]; [20]) of 45 mg/kg/day and an NEL (rat [4]; [20]) of under 7.29 mg/kg/day. For the same molecule, the NOAEL (rat [4]; [21]) was 6.05 mg/kg/day, the LEL (mouse [5]; [22]) was 308 mg/kg/day and the LOAEL (mouse [5]; [22]) was over 308 mg/kg/day. For the same molecule, the NEL (mouse [5]; [22]) was 91 mg/kg/day, the NOAEL (mouse [5]; [22]) was at least 308 mg/kg/day and the LOAEL (mouse [5]; [23]) was 91 mg/kg/day. The NOAEL (mouse [5]; [23]) was 20 mg/kg/day, the LEL (mouse [5]; [24]) was 25 mg/kg/day and the NEL (mouse [5]; [24]) was under 25 mg/kg/day. For the same molecule, the LOAEL (rabbit; [16]) was 100 mg/kg/day, the LEL (rabbit; [25]) was 100 mg/kg/day and the NEL (rabbit; [25]) was 50 mg/kg/day. The NOAEL (rabbit; [25]) was 50 mg/kg/day, the LEL (rabbit; [26]) was 100 mg/kg/day and the LOAEL (rabbit; [26]) was 100 mg/kg/day. For the same molecule, the NEL (rabbit; [26]) was 50 mg/kg/day, the NOAEL (rabbit; [26]) was 50 mg/kg/day and the LOAEL (mouse [6]; [27]) was 139 mg/kg/day. The NOAEL (mouse [6]; [27]) was 41.1 mg/kg/day, the LEL (mouse [6]; [28]) was 6.9 mg/kg/day and the NEL (mouse [6]; [28]) was under 6.9 mg/kg/day. The LEL (rat [7]; systemic / in life observation / body weight / body weight) was 4.4 mg/kg/day, the LOAEL (rat [7]; [20]) was 23.1 mg/kg/day and the NEL (rat [7]; [21]) was 1.5 mg/kg/day. The NOAEL (rat [7]; [21]) was 4.4 mg/kg/day, the LEL (rat [8]; [29]) was 25 mg/kg/day and the NEL (rat [8]; [29]) was under 25 mg/kg/day. It also gave an LOAEL (rat [8]; [16]) of 50 mg/kg/day, an NOAEL (rat [8]; group: developmental, systemic / in life observation / body weight / fetal weight + developmental / developmental malformation / bone / absent + developmental / …) of 25 mg/kg/day and an LEL (rat [8]; [30]) of 25 mg/kg/day. For the same molecule, the LOAEL (rat [8]; [30]) was 25 mg/kg/day, the NEL (rat [8]; [30]) was under 25 mg/kg/day and the NOAEL (rat [8]; [30]) was under 25 mg/kg/day. It also gave an LEL (dog [9]) of 25 mg/kg/day, an LOAEL (dog [9]) of 25 mg/kg/day and an NEL (dog [9]) of 5 mg/kg/day. The NOAEL (dog [9]) was 5 mg/kg/day, the LOAEL (rat [10]; group: offspring, systemic / in life observation / body weight / offspring (pup) weight gain) was 18.8 mg/kg/day and the LEL (rat [10]; [31]) was 18.8 mg/kg/day. For the same molecule, the NEL (rat [10]; [31]) was 3.75 mg/kg/day, the NOAEL (rat [10]; [31]) was 3.75 mg/kg/day and the LEL (rat [10]; [32]) was 18.8 mg/kg/day. For the same molecule, the LOAEL (rat [10]; [32]) was 37.5 mg/kg/day, the NEL (rat [10]; [32]) was 3.75 mg/kg/day and the NOAEL (rat [10]; [32]) was 18.8 mg/kg/day. It also gave an LEL (rat [10]; [33]) of 18.8 mg/kg/day, an LOAEL (rat [10]; [33]) of 18.8 mg/kg/day and an NEL (rat [10]; [34]) of 3.75 mg/kg/day. The NOAEL (rat [10]; [34]) was 3.75 mg/kg/day, the LEL (dog [11]) was 75 mg/kg/day and the LOAEL (dog [11]) was 75 mg/kg/day. The NEL (dog [11]) was 5 mg/kg/day and the NOAEL (dog [11]) was 5 mg/kg/day.

With O=S(=O)([O-])C(F)(F)C(F)(F)C(F)(F)C(F)(F)F.[K+] [PFBS-K] the LOAEL (rat [12]; [35]) was over 600 mg/kg/day, the NOAEL (rat [12]; [35]) was at least 600 mg/kg/day and the LEL (rat [12]; [36]) was 60 mg/kg/day. For the same molecule, the NEL (rat [12]; [36]) was under 60 mg/kg/day, the LEL (rat [13]; [37]) was 30 mg/kg/day and the NEL (rat [13]; [37]) was under 30 mg/kg/day. For the same molecule, the LOAEL (rat [13]; [38]) was over 1000 mg/kg/day, the NOAEL (rat [13]; [38]) was at least 1000 mg/kg/day and the LOAEL (rat [13]; [39]) was over 1000 mg/kg/day. For the same molecule, the NEL (rat [13]; [39]) was 100 mg/kg/day, the NOAEL (rat [13]; [39]) was at least 1000 mg/kg/day and the LEL (rat [13]; group: parental, systemic / pathology microscopic / kidney / edema + systemic / pathology microscopic / kidney / hyperplasia + systemic / organ weight / …) was 300 mg/kg/day.
